Experimental data as given in patent publication US12410164B2, “Heterocyclic compounds and medical use thereof” (FONDAZIONE TELETHON, priority 2018, dated 2025).

Molecular target: F508del-CFTR (Homo sapiens, UniProt P13569, DEL508-508)
Experiment: HS-YFP kinetic fluorescence (iodide quenching rate) assay in CFBE41o− cells
Assay type: cell-based
Set-up: expressed in transfected cells; host or cells: CFBE41o- cells with expression of F508del-CFTR and HS-YFP (generated as in Sondo et al. 2011)
Conditions: for structure-activity comparison of corrector potency/activity: relative to the analogue
Experimental: CFBE41o- cells, with expression of F508del-CFTR and halogen-sensitive fluorescent protein, were generated as previously described (Sondo E, et al. Am J Physiol. 2011, 301, […]-[…]). For the test, the cells were seeded in 96-well microplates using a culture medium consisting of DMEM and Ham's F12 (1:1) supplemented with 10% foetal bovine serum. After 24 hours from seeding, the cells were treated for another 24 hours with the test compounds dissolved in the culture medium at the desired concentrations. As a negative control, the solvent of the compounds (dimethyl sulfoxide, DMSO) dissolved in the medium with the same dilution ratio (final percentage of DMSO:0.1-0.2%) was used. As a positive control, the corrector VX-809 (Selleck Chemicals, […]) was used at a concentration of 1 μM. After treatment, the medium with the compounds was removed and the cells were stimulated with forskolin (Sigma-Aldrich, F6886) 20 μM plus genistein (Sigma-Aldrich, G6649) 50 μM (in 60 μl of PBS saline) to maximally activate the CFTR channels present in the membrane. In a microplate reader (FLUOstar-Omega, BMG) the fluorescence of the cells in each well was read for 14 seconds, with an injection of 165 μl of a iodide-enriched saline (modified PBS where NaCl, 137 mM, has been replaced with the same concentration of NaI). The iodide transport activity in each well was evaluated by subtraction of the background fluorescence (measured in a well without cells), subsequent normalization with respect to the initial fluorescence and finally by interpolation of the fluorescence quenching phase with an exponential function that allows the derivation of the maximum slope (quenching rate, QR). The activity of the synthesized compounds was initially evaluated on the CFBE41o- cell line with expression of the mutated F508del-CFTR protein described above (Sondo E, et al. Am J Physiol. 2011, 301, […]-[…]). For this purpose, a functional assay based on the fluorescent YFP protein sensitive to halides, HS-YFP, was used (Galietta L J, et al. J Biol Chem. 2001, 276, 19723-19728). The fluorescence of the HS-YFP protein is turned off by iodide. Therefore, if exposed to a solution containing iodide, cells with HS-YFP expression show a quenching speed of the fluorescence which depends on the presence and activity of anionic channels. Under control conditions, the mutated CFTR protein presents a serious defect of stability and maturation, so it remains trapped in the endoplasmic reticulum not reaching the cell surface in enough quantity. In the HS-YFP-based assay, this defect results in a low anion transport capacity and therefore in a low quenching rate (QR). Treatment for a prolonged time (e.g. 24 hours) with a corrector determines an improvement in protein maturation with an increase in the number of CFTR channels present in the membrane and therefore an increase in the flux of iodide and QR. In a first phase, the authors screened about 200 heterocyclic molecules with various nitrogenated tricyclic scaffolds. Conditions previously described have been used for screening (Sondo E, et al. Am J Physiol. 2011, 301, […]-[…]) and reported herein in the Materials and Methods section. A threshold equal to the average value plus three times the standard deviation of the QR of wells without compounds (only DMSO in the culture medium) was used as a criterion for the selection of active compounds.

[1] = Table 1, compound at 10 μM plus VX-809, (QRTOT − QRVX)/QRVX, HS-YFP assay
[2] = Table 4, compound at 10 μM plus VX-809, (QRTOT − QRVX)/QRVX

Chain of F508del-CFTR (P13569 with tags, fused parts or gaps DEL508-508): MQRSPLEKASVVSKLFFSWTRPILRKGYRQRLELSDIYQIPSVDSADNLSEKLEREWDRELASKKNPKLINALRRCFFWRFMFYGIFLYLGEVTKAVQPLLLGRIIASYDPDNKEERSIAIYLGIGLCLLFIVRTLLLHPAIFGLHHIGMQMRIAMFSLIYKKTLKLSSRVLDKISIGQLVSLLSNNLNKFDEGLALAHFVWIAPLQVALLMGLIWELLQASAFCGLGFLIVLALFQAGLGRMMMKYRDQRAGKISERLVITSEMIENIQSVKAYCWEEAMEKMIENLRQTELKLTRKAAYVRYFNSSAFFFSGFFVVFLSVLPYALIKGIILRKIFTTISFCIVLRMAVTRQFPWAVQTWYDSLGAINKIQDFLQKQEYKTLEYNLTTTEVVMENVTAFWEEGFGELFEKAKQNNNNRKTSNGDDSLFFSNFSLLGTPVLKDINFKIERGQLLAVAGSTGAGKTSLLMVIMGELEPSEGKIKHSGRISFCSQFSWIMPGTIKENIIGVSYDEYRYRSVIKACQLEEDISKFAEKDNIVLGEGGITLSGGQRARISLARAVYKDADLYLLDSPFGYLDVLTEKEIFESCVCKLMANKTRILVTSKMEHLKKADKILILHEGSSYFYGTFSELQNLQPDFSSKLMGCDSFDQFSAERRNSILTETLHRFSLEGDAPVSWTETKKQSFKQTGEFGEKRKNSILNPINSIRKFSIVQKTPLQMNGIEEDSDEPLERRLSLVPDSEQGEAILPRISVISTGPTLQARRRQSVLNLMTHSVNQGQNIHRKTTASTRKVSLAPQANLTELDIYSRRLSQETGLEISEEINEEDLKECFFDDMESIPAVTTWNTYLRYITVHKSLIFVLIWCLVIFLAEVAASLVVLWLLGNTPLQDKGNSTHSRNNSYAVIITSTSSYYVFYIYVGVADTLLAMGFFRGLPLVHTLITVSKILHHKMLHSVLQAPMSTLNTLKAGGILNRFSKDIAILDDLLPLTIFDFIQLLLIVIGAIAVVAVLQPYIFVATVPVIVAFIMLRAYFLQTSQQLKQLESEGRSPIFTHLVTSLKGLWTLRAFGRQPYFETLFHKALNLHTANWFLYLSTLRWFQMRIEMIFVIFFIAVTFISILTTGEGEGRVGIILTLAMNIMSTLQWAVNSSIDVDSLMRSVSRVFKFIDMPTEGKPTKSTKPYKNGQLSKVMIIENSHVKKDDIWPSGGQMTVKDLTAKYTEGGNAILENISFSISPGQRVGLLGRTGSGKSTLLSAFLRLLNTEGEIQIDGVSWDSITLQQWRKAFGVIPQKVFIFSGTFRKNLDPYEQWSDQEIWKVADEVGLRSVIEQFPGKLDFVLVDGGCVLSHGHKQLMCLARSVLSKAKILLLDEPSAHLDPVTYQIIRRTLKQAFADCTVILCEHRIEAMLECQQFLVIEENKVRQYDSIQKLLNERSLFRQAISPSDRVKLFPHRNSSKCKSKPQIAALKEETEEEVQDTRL

Row | SMILES | AI (%) additivity index [1] [%] | further results
1 | CCOC(=O)c1c(I)c2c(n1Cc1ccc(C)cc1)-c1[nH]c(=O)c(S(=O)(=O)c3ccccc3)cc1CC2 [PP077, Ethyl 7-(benzenesulfonyl)-3-iodo-1-[(4-methylphenyl)methyl]-8-oxo-4,5,8,9-tetrahydro-1H-pyrrolo[3,2-h]quinoline-2-carboxylate] | 202 | –
2 | Cc1ccc(Cn2c(C(=O)O)c(Br)c3c2-c2[nH]c(=O)c(S(=O)(=O)c4ccccc4)cc2CC3)cc1C [PP095, 7-(Benzenesulfonyl)-3-bromo-1-[(3,4-dimethylphenyl)methyl]-8-oxo-4,5,8,9-tetrahydro-1H-pyrrolo[3,2-h]quinoline-2-carboxylic acid] | 11 | –
3 | Cc1cccc(Cn2c(C(=O)NC(C)C)c(Br)c3c2-c2[nH]c(=O)c(S(=O)(=O)c4ccccc4)cc2CC3)c1 [PP091, 7-(Benzenesulfonyl)-3-bromo-1-[(3-methylphenyl)methyl]-8-oxo-N-(propan-2-yl)-4,5,8,9-tetrahydro-1H-pyrrolo[3,2-h]quinoline-2-carboxamide] | 208 | –
4 | CCOC(=O)c1cc2c(n1Cc1c(C)cc(C)cc1C)-c1[nH]c(=O)c(S(=O)(=O)c3ccccc3)cc1CC2 [PP068, Ethyl 7-(benzenesulfonyl)-8-oxo-1-[(2,4,6-trimethylphenyl)methyl]-4,5,8,9-tetrahydro-1H-pyrrolo[3,2-h]quinoline-2-carboxylate] | 116 | –
5 | CCOC(=O)c1c(Br)c2c(n1Cc1ccc(F)cc1)-c1[nH]c(=O)c(S(=O)(=O)c3ccccc3)cc1CC2 [PP073, Ethyl 7-(benzenesulfonyl)-3-bromo-1-[(4-fluorophenyl)methyl]-8-oxo-4,5,8,9-tetrahydro-1H-pyrrolo[3,2-h]quinoline-2-carboxylate] | 442 | –
6 | COC(=O)c1c(Br)c2c(n1Cc1ccc(C)cc1)-c1[nH]c(=O)c(S(=O)(=O)c3ccccc3)cc1CC2 [PP031, Methyl 3-bromo-1-(4-methylbenzyl)-8-oxo-7-(phenylsulfonyl)-4,5,8,9-tetrahydro-1H-pyrrolo[3,2-h]quinoline-2-carboxylate] | 39 | –
7 | CCOC(=O)c1cc2c(n1Cc1ccc(C)cc1)-c1[nH]c(=O)c(S(=O)(=O)c3ccccc3)cc1CC2 [PP007] | 169 | AI additivity index in the example of FIG. 1 (10 μM, with VX-809 1 μM, 24 h): 74%; F508del-CFTR activity (quenching rate) versus DMSO control (compound alone, 24 h treatment): significant increase in F508del-CFTR activity; F508del-CFTR activity (quenching rate) of combination with VX-809 (compound plus VX-809 1 μM, 24 h): greater than the sum of the single effects; screening outcome (QR above mean plus three SD of DMSO wells) (screen of about 200 heterocyclic molecules): active
8 | CCOC(=O)c1cc2c(n1Cc1cccc(C)c1)-c1[nH]c(=O)c(S(=O)(=O)c3ccccc3)cc1CC2 [PP016, Ethyl 1-(3-methylbenzyl)-8-oxo-7-(phenylsulfonyl)-4,5,8,9-tetrahydro-1H-pyrrolo[3,2-h]quinoline-2-carboxylate] | 42 | –
9 | CCOC(=O)c1c(Br)c2c(n1Cc1ccc(I)cc1)-c1[nH]c(=O)c(S(=O)(=O)c3ccccc3)cc1CC2 [PP063, Ethyl 7-(benzenesulfonyl)-3-bromo-1-[(4-iodophenyl)methyl]-8-oxo-4,5,8,9-tetrahydro-1H-pyrrolo[3,2-h]quinoline-2-carboxylate] | 146 | –
10 | CCOC(=O)c1cc2c(n1Cc1ccccc1C)-c1[nH]c(=O)c(S(=O)(=O)c3ccccc3)cc1CC2 [PP015, Ethyl 1-(2-methylbenzyl)-8-oxo-7-(phenylsulfonyl)-4,5,8,9-tetrahydro-1H-pyrrolo[3,2-h]quinoline-2-carboxylate] | 124 | –
11 | Cc1cccc(Cn2c(C(=O)O)c(Br)c3c2-c2[nH]c(=O)c(S(=O)(=O)c4ccccc4)cc2CC3)c1 [PP081, 7-(Benzenesulfonyl)-3-bromo-1-[(3-methylphenyl)methyl]-8-oxo-4,5,8,9-tetrahydro-1H-pyrrolo[3,2-h]quinoline-2-carboxylic acid] | 20 | –
12 | Cc1cccc(Cn2c(C(=O)O)cc3c2-c2[nH]c(=O)c(S(=O)(=O)c4ccccc4)cc2CC3)c1 [PP090, 7-(Benzenesulfonyl)-1-[(3-methylphenyl)methyl]-8-oxo-4,5,8,9-tetrahydro-1H-pyrrolo[3,2-h]quinoline-2-carboxylic acid] | 36 | –
13 | CCOC(=O)c1cc2c(n1Cc1ccc(C(F)(F)F)cc1)-c1[nH]c(=O)c(S(=O)(=O)c3ccccc3)cc1CC2 [PP070, Ethyl 7-(benzenesulfonyl)-8-oxo-1-{[4-(trifluoromethyl)phenyl]methyl}-4,5,8,9-tetrahydro-1H-pyrrolo[3,2-h]quinoline-2-carboxylate] | 101 | –
14 | CCOC(=O)c1c(Br)cc2n1CCc1cc(S(=O)(=O)c3ccccc3)c(=O)[nH]c1-2 [QZN2, Ethyl 3-(benzenesulfonyl)-9-bromo-2-oxo-1,2,5,6-tetrahydropyrrolo[1,2-h][1,7]naphthyridine-8-carboxylate] | – | AI (%) additivity index [2]: 19%
15 | Cc1ccc(Cn2c(C(=O)O)c(Br)c3c2-c2[nH]c(=O)c(S(=O)(=O)c4ccccc4)cc2CC3)cc1 [PP079, 7-(Benzenesulfonyl)-3-bromo-1-[(4-methylphenyl)methyl]-8-oxo-4,5,8,9-tetrahydro-1H-pyrrolo[3,2-h]quinoline-2-carboxylic acid] | 38 | –
16 | CC(C)OC(=O)c1c(Br)cc2n1CCCc1cc(S(=O)(=O)c3ccccc3)c(=O)[nH]c1-2 [QZN14, Propan-2-yl 3-(benzenesulfonyl)-10-bromo-2-oxo-1,5,6,7-tetrahydro-2H-pyrido[2,3-c]pyrrolo[1,2-a]azepine-9-carboxylate] | – | AI (%) additivity index [2]: 141%
17 | Cc1cccc(Cn2c(C(=O)Nc3cc(C(C)(C)C)on3)c(Br)c3c2-c2[nH]c(=O)c(S(=O)(=O)c4ccccc4)cc2CC3)c1 [PP102, 7-(Benzenesulfonyl)-3-bromo-N-(5-tert-butyl-1,2-oxazol-3-yl)-1-[(3-methylphenyl)methyl]-8-oxo-4,5,8,9-tetrahydro-1H-pyrrolo[3,2-h]quinoline-2-carboxamide] | 103 | –
18 | CCOC(=O)c1cc2c(n1C)-c1[nH]c(=O)c(S(=O)(=O)c3ccccc3)cc1CC2 [PP010] | 95 | structure-activity comparison of corrector potency/activity: causes a reduction in activity
19 | CCOC(=O)c1c(Br)c2c(n1Cc1c(C)cc(C)cc1C)-c1[nH]c(=O)c(S(=O)(=O)c3ccccc3)cc1CC2 [PP069, Ethyl 7-(benzenesulfonyl)-3-bromo-8-oxo-1-[(2,4,6-trimethylphenyl)methyl]-4,5,8,9-tetrahydro-1H-pyrrolo[3,2-h]quinoline-2-carboxylate] | 175 | –
20 | Cc1cccc(Cn2c(C(N)=O)cc3c2-c2[nH]c(=O)c(S(=O)(=O)c4ccccc4)cc2CC3)c1 [PP093, 7-(Benzenesulfonyl)-1-[(3-methylphenyl)methyl]-8-oxo-4,5,8,9-tetrahydro-1H-pyrrolo[3,2-h]quinoline-2-carboxamide] | 25 | –
21 | CCOC(=O)c1cc2c(n1CC1CC1)-c1[nH]c(=O)c(S(=O)(=O)c3ccccc3)cc1CC2 [PP064, Ethyl 7-(benzenesulfonyl)-1-(cyclopropylmethyl)-8-oxo-4,5,8,9-tetrahydro-1H-pyrrolo[3,2-h]quinoline-2-carboxylate] | 235 | –
22 | CCOC(=O)c1c(Br)c2c(n1Cc1ccc(C)cc1)-c1[nH]c(=O)c(S(=O)(=O)c3ccccc3)cc1CCC2 [PP056, Ethyl 8-(benzenesulfonyl)-3-bromo-1-[(4-methylphenyl)methyl]-9-oxo-1,4,5,6,9,10-hexahydropyrrolo[3′,2′:6,7]cyclohepta[1,2-b]pyridine-2-carboxylate] | – | AI additivity index (Table 2, compound at 10 μM plus VX-809, (QRTOT − QRVX)/QRVX): 60%; structure-activity comparison of corrector potency/activity: more potent than the non-halogenated analogues
